{"source": "patent US20120087864A1", "about": "“METHOD FOR DIAGNOSING AND/OR EVALUATING RETINAL DISEASE” (R-TECH UENO, LTD., priority 2010, published 2012)", "test_system": "patient with retinal pigmentosa", "assay": "Distribution of MP-1 central 2 degrees retinal sensitivity change by concentration of metabolite A in plasma (LC/MS/MS)", "format": "in vivo, human", "details": "instillation group", "method": "Concentration of drug in plasma (20 week after the initiation of test drug administration, the concentration of the drug in plasma after 15 minutes had passed since instillation of the second drop). Evaluate items: The concentration of isopropyl unoprostone and its metabolite A (free carboxylic acid of isopropyl unoprostone in plasma was measured.)\nTwenty weeks after the initiation of the test drug administration in Test Example 1, the concentration of the drug in plasma was measured after 15 minutes had passed since instillation of the second drop.\nEvaluation item: concentration of metabolite A (free carboxylic acid of isopropyl unoprostone) in plasma Measuring method: Twenty weeks after initiation of test drug administration, samples were obtained by drawing 4 ml of blood per time after 15 minutes had passed since instillation of the second drop, and then the concentration of the metabolite A in plasma was measured by liquid chromatogram/Tandem mass spectrometer (LC/MS/MS) using a portion of the measuring samples. Measuring apparatus: liquid chromatograph/Tandem mass spectrometer (LC/MS/MS) [High-performance liquid chromatography system (SHIMADZU 20A, manufactured by Shimadzu Corporation) Analysis column: Develosil ODS-UG-3 (2.0 mm I.D.×50 mm, 3 μm, manufactured by Nomura Chemical Co., Ltd.) Column temperature: 35° C. Injection amount: 20 μL Mobile phase A: acetonitrile/10 mmol/L ammonium acetate solution/acetic acid (20:80:0.1, v/v/v) Mobile phase B: acetonitrile/acetic acid (100:0.1, v/v) Needle wash: Methanol Flow rate: 0.25 mL/minute Mass spectrometry (API 4000, manufactured by Applied Biosystems)] Ionization method: ESI method (Turbo ion spray, 350° C.) […] Internal standard substance: 17,20-dimethyl PGF1α\nIn order to evaluate a correlation of the change value (24 weeks) of average retinal sensitivity by MP-1 in central 2 degrees (4 points) with the concentration of metabolite A in plasma of the isopropyl unoprostone instillation group, when the change value (24 weeks) of average retinal sensitivity by MP-1 in central 2 degrees (4 points) was a positive value, it was classified as “improvement”. In contrast, when the change value was zero and a negative value, it was classified as “non-improvement”. Furthermore, each concentration of metabolite A in plasma (1 ng/mL, 2 ng/mL, 2.5 ng/mL and 3 ng/mL) was regarded as a boundary concentration, distribution of the change value (24 weeks) by MP-1 in central 2 degrees (4 points) average retinal sensitivity was confirmed.", "key": {"[1]": {"details": "metabolite A in plasma 1.0 ng/mL or more"}, "[2]": {"details": "metabolite A in plasma 2.0 ng/mL or more"}, "[3]": {"details": "metabolite A in plasma 2.5 ng/mL or more"}, "[4]": {"details": "metabolite A in plasma 3.0 ng/mL or more"}, "[5]": {"details": "metabolite A in plasma less than 1.0 ng/mL"}, "[6]": {"details": "metabolite A in plasma less than 2.0 ng/mL"}, "[7]": {"details": "metabolite A in plasma less than 2.5 ng/mL"}, "[8]": {"details": "metabolite A in plasma less than 3.0 ng/mL"}}}
{"smiles": "CCCCCCCC(=O)CC[C@@H]1[C@@H](C/C=C\\CCCC(=O)OC(C)C)[C@@H](O)C[C@H]1O", "note": "[isopropyl unoprostone, (+)-isopropyl (Z)-7-[(1R,2R,3R,5S)-3,5-dihydroxy-2-(3-oxodecyl)cyclopentyl]hept-5-enoate]", "values": [{"measurement": "number of improved cases (MP-1 central 2 degrees change value, 24 weeks, positive)", "setting": "[1]", "value": 33}, {"measurement": "number of non-improved cases", "setting": "[1]", "value": 18}, {"measurement": "ratio of improved cases", "setting": "[1]", "value": "(64.7%)"}, {"measurement": "ratio of non-improved cases", "setting": "[1]", "value": "(35.3%)"}, {"measurement": "number of improved cases (MP-1 central 2 degrees change value, 24 weeks, positive)", "setting": "[2]", "value": 16}, {"measurement": "number of non-improved cases", "setting": "[2]", "value": 8}, {"measurement": "ratio of improved cases", "setting": "[2]", "value": "(66.7%)"}, {"measurement": "ratio of non-improved cases", "setting": "[2]", "value": "(33.3%)"}, {"measurement": "number of improved cases (MP-1 central 2 degrees change value, 24 weeks, positive)", "setting": "[3]", "value": 12}, {"measurement": "number of non-improved cases", "setting": "[3]", "value": 2}, {"measurement": "ratio of improved cases", "setting": "[3]", "value": "(85.7%)"}, {"measurement": "ratio of non-improved cases", "setting": "[3]", "value": "(14.3%)"}, {"measurement": "number of improved cases (MP-1 central 2 degrees change value, 24 weeks, positive)", "setting": "[4]", "value": 9}, {"measurement": "number of non-improved cases", "setting": "[4]", "value": 1}, {"measurement": "ratio of improved cases", "setting": "[4]", "value": "(90.0%)"}, {"measurement": "ratio of non-improved cases", "setting": "[4]", "value": "(10.0%)"}, {"measurement": "number of improved cases (MP-1 central 2 degrees change value, 24 weeks, positive)", "setting": "[5]", "value": 11}, {"measurement": "number of non-improved cases", "setting": "[5]", "value": 11}, {"measurement": "ratio of improved cases", "setting": "[5]", "value": "(50.0%)"}, {"measurement": "ratio of non-improved cases", "setting": "[5]", "value": "(50.0%)"}, {"measurement": "number of improved cases (MP-1 central 2 degrees change value, 24 weeks, positive)", "setting": "[6]", "value": 28}, {"measurement": "number of non-improved cases", "setting": "[6]", "value": 21}, {"measurement": "ratio of improved cases", "setting": "[6]", "value": "(57.1%)"}, {"measurement": "ratio of non-improved cases", "setting": "[6]", "value": "(42.9%)"}, {"measurement": "number of improved cases (MP-1 central 2 degrees change value, 24 weeks, positive)", "setting": "[7]", "value": 32}, {"measurement": "number of non-improved cases", "setting": "[7]", "value": 27}, {"measurement": "ratio of improved cases", "setting": "[7]", "value": "(54.2%)"}, {"measurement": "ratio of non-improved cases", "setting": "[7]", "value": "(45.8%)"}, {"measurement": "number of improved cases (MP-1 central 2 degrees change value, 24 weeks, positive)", "setting": "[8]", "value": 35}, {"measurement": "number of non-improved cases", "setting": "[8]", "value": 28}, {"measurement": "ratio of improved cases", "setting": "[8]", "value": "(55.6%)"}, {"measurement": "ratio of non-improved cases", "setting": "[8]", "value": "(44.4%)"}]}
